This passage reports MIC50 results from EP2929883A1, “Pyrazole derivatives as dihydroorotate dehydrogenase (DHODH) inhibitors” (INSTITUT PASTEUR, priority 2014, dated 2015).

Structures are written as SMILES. ≈ marks a conversion by molar mass, not a printed value. Where only a bound is given, the exact number is not on record here.

In this assay the test system is measles virus. In words: microbe, parasite or virus in culture. The settings on record: Measles morbillivirus, 24 h.
As for `Cc1c(Oc2c(O)cccc2F)c(OC(C)C)nn1-c1ncc(C2CC2)cc1O` [example 188, 5-cyclopropyl-2-(4-(2-fluoro-6-hydroxyphenoxy)-3-isopropoxy-5-methyl-1H-pyrazol-1-yl)pyridin-3-ol], the MIC50 was 0.0005 to 0.05 µM (≈ 0.0002 to 0.02 µg/mL).

`CCOc1nn(-c2ccc(C(C)(F)F)cn2)c(C)c1Cc1ccccc1` [example 99, 2-(4-benzyl-3-ethoxy-5-methyl-1H-pyrazol-1-yl)-5-(1,1-difluoroethyl)pyridine]: the MIC50 fell in the range of 0.5 to 5 µM (≈ 0.179 to 1.79 µg/mL).

For `CCOc1cc(-c2ccc(Cl)cc2)n(-c2ccccn2)n1` [example 147, 2-(5-(4-chlorophenyl)-3-ethoxy-1H-pyrazol-1-yl)pyridine], the MIC50 was > 5 µM.

The compound `Cc1cc(Br)cnc1-n1nc(OC(C)C)c(Oc2c(F)cccc2F)c1C` [example 85, 5-bromo-2-(4-(2,6-difluorophenoxy)-3-isopropoxy-5-methyl-1H-pyrazol-1-yl)-3-methylpyridine] registered an MIC50 of 0.5 to 5 µM (≈ 0.219 to 2.19 µg/mL).

Take `CCOc1c(Cc2ccccc2)c(C)nn1-c1ncc(Br)cn1` [example 43, 2-(4-benzyl-5-ethoxy-3-methyl-1H-pyrazol-1-yl)-5-bromopyrimidine]: the MIC50 is > 5 µM.

Take `CCOc1nn(-c2ccc(C)cn2)c(C)c1Oc1ccccc1` [example 127, 2-(3-ethoxy-5-methyl-4-phenoxy-1H-pyrazol-1-yl)-5-methylpyridine]: the MIC50 fell in the range of 0.5 to 5 µM (≈ 0.155 to 1.55 µg/mL).

Compound `CCOc1nn(-c2ncc(CC)cn2)c(C)c1Oc1ccccc1Cl` [example 78, 2-(4-(2-chlorophenoxy)-3-ethoxy-5-methyl-1H-pyrazol-1-yl)-5-ethylpyrimidine] had an MIC50 of 0.05 to 0.5 µM (≈ 0.0179 to 0.179 µg/mL).

As to `CCOc1nn(-c2ncc(CC)cn2)c(C)c1Oc1cc(Cl)ccc1Cl` [example 64, 2-(4-(2,5-dichlorophenoxy)-3-ethoxy-5-methyl-1H-pyrazol-1-yl)-5-ethylpyrimidine], the MIC50 lay within 0.0005 to 0.05 µM (≈ 0.000197 to 0.0197 µg/mL).

Take `COc1cc(-c2ccc(Cl)cc2Cl)n(-c2ccccn2)n1` [example 144, 2-(5-(2,4-dichlorophenyl)-3-methoxy-1H-pyrazol-1-yl)pyridine]: the MIC50 was > 5 µM.

`CCc1ccc(-n2nc(OC(C)C)c(Oc3c(F)cccc3F)c2C)cn1` [example 129, 5-(4-(2,6-difluorophenoxy)-3-isopropoxy-5-methyl-1H-pyrazol-1-yl)-2-ethylpyridine] showed an MIC50 of 0.0005 to 0.05 µM (≈ 0.000187 to 0.0187 µg/mL).

In turn, `COc1ccc(-n2nc(OC(C)C)c(Oc3c(F)cccc3F)c2C)nc1` [example 126, 2-(4-(2,6-difluorophenoxy)-3-isopropoxy-5-methyl-1H-pyrazol-1-yl)-5-methoxypyridine] returned an MIC50 of 0.05 to 0.5 µM (≈ 0.0188 to 0.188 µg/mL).

With `CCOc1nn(-c2ccc(OC)cc2)cc1Cc1ccccc1` [example 164, 4-benzyl-3-ethoxy-1-(4-methoxyphenyl)-1H-pyrazole], the MIC50 was > 5 µM.

In the case of `CCOc1nn(-c2ccc(C(C)(C)O)cn2)c(C)c1Cc1ccccc1` [example 34, 2-(6-(4-benzyl-3-ethoxy-5-methyl-1H-pyrazol-1-yl)pyridin-3-yl)propan-2-ol], the MIC50 is > 5 µM.

`CCc1cnc(-n2nc(OC(C)C)c(Cc3ccc(F)cc3)c2C)nc1` [example 24, 5-ethyl-2-(4-(4-fluorobenzyl)-3-isopropoxy-5-methyl-1H-pyrazol-1-yl)pyrimidine] came in with an MIC50 of 0.0005 to 0.05 µM (≈ 0.000177 to 0.0177 µg/mL).

Consider `CCc1cnc(-n2nc(CC(C)C)c(Cc3ccccc3)c2C)nc1` [example 121, 2-(4-benzyl-3-isobutyl-5-methyl-1H-pyrazol-1-yl)-5-ethylpyrimidine], for which the MIC50 lay in the range of 0.0005 to 0.05 µM (≈ 0.000167 to 0.0167 µg/mL).

Compound `CCOc1nn(-c2ccc(C3CC3)cn2)c(C)c1Oc1cc(Cl)ccc1Cl` [example 95, 5-cyclopropyl-2-(4-(2,5-dichlorophenoxy)-3-ethoxy-5-methyl-1H-pyrazol-1-yl)pyridine] registered an MIC50 of 0.05 to 0.5 µM (≈ 0.0202 to 0.202 µg/mL).

As to `CCOc1nn(-c2ncc(CC)cn2)c(C)c1I` [example 106, 2-(3-ethoxy-4-iodo-5-methyl-1H-pyrazol-1-yl)-5-ethylpyrimidine], the MIC50 was > 5 µM.

`Cc1c(Oc2c(F)cccc2F)c(OC(C)C)nn1-c1ncc(C2CC2)cc1N(C)C` [example 190, 5-cyclopropyl-2-(4-(2,6-difluorophenoxy)-3-isopropoxy-5-methyl-1H-pyrazol-1-yl)-N,N-dimethylpyridin-3-amine] returned an MIC50 of 0.0005 to 0.05 µM (≈ 0.000214 to 0.0214 µg/mL).

Consider `CCOc1nn(-c2ncc(C3CC3)cc2C#N)c(C)c1Cc1ccccc1` [example 36, 2-(4-benzyl-3-ethoxy-5-methyl-1H-pyrazol-1-yl)-5-cyclopropylnicotinonitrile], for which the MIC50 was 0.05 to 0.5 µM (≈ 0.0179 to 0.179 µg/mL).

`CCc1cnc(-n2nc(OC(C)C)c(Oc3ccc(F)cc3)c2C)nc1` [example 76, 5-ethyl-2-(4-(4-fluorophenoxy)-3-isopropoxy-5-methyl-1H-pyrazol-1-yl)pyrimidine] yielded an MIC50 of 0.05 to 0.5 µM (≈ 0.0178 to 0.178 µg/mL).

On to `CCc1cnc(-n2nc(OC(C)C)c(Cc3cccc(F)c3)c2C)nc1` [example 11, 5-ethyl-2-(4-(3-fluorobenzyl)-3-isopropoxy-5-methyl-1H-pyrazol-1-yl)pyrimidine], for which the MIC50 was in the range of 0.0005 to 0.05 µM (≈ 0.000177 to 0.0177 µg/mL).

Turning to `Cc1c(Oc2cccc(F)c2F)c(OC(C)C)nn1-c1ccc(C2CC2)cn1` [example 16, 5-cyclopropyl-2-(4-(2,3-difluorophenoxy)-3-isopropoxy-5-methyl-1H-pyrazol-1-yl)pyridine], the MIC50 lay within 0.0005 to 0.05 µM (≈ 0.000193 to 0.0193 µg/mL).

The compound `COCc1c(Cc2ccccc2)c(OC(C)C)nn1-c1ncc(C2CC2)cn1` [example 168, 2-(4-benzyl-3-isopropoxy-5-(methoxymethyl)-1H-pyrazol-1-yl)-5-cyclopropylpyrimidine] yielded an MIC50 of 0.05 to 0.5 µM (≈ 0.0189 to 0.189 µg/mL).

Take `CCc1cnc(-n2nc(OC(C)C)c(Oc3cccc(F)c3F)c2C)nc1` [example 77, 2-(4-(2,3-difluorophenoxy)-3-isopropoxy-5-methyl-1H-pyrazol-1-yl)-5-ethylpyrimidine]: the MIC50 is 0.05 to 0.5 µM (≈ 0.0187 to 0.187 µg/mL).

Compound `CCCCc1c(OCC)nn(-c2ncc(CC)cn2)c1C` [example 114, 2-(4-butyl-3-ethoxy-5-methyl-1H-pyrazol-1-yl)-5-ethylpyrimidine] returned an MIC50 of 0.5 to 5 µM (≈ 0.144 to 1.44 µg/mL).

The compound `CC(C)Oc1nn(-c2ncc(C3CC3)cc2F)cc1Oc1ccccc1F` [example 66, 5-cyclopropyl-3-fluoro-2-(4-(2-fluorophenoxy)-3-isopropoxy-1H-pyrazol-1-yl)pyridine] displayed an MIC50 of 0.0005 to 0.05 µM (≈ 0.000186 to 0.0186 µg/mL).

Compound `COc1ccc(-n2nc(OC(C)C)c(Oc3c(F)cccc3F)c2C)nn1` [example 174, 3-(4-(2,6-difluorophenoxy)-3-isopropoxy-5-methyl-1H-pyrazol-1-yl)-6-methoxypyridazine] returned an MIC50 of 0.05 to 0.5 µM (≈ 0.0188 to 0.188 µg/mL).

In turn, `CCc1nnc(-n2nc(OC(C)C)c(Oc3c(F)cccc3F)c2C)nc1O` [example 118, 3-(4-(2,6-difluorophenoxy)-3-isopropoxy-5-methyl-1H-pyrazol-1-yl)-6-ethyl-1,2,4-triazin-5-ol] had an MIC50 of 0.0005 to 0.05 µM (≈ 0.000196 to 0.0196 µg/mL).

Compound `CC(C)Oc1nn(-c2ccc(C3CC3)cn2)cc1C(O)c1ccccc1` (stereo not shown) [example 179, (1-(5-cyclopropylpyridin-2-yl)-3-isopropoxy-1H-pyrazol-4-yl)(phenyl)methanol] displayed an MIC50 of 0.05 to 0.5 µM (≈ 0.0175 to 0.175 µg/mL).

For the compound `CCOc1nn(-c2cccc(C)n2)c(C)c1Cc1ccccc1` [example 33, 2-(4-benzyl-3-ethoxy-5-methyl-1H-pyrazol-1-yl)-6-methylpyridine], the MIC50 was > 5 µM.

For `COc1nn(-c2ncc(C3CC3)cn2)c(C)c1Cc1ccccc1` [example 138, 2-(4-benzyl-3-methoxy-5-methyl-1H-pyrazol-1-yl)-5-cyclopropylpyrimidine], the MIC50 lay within 0.05 to 0.5 µM (≈ 0.016 to 0.16 µg/mL).
